Values after ≈ are worked out from the molar mass of the structure shown.
Assays:
Assay type in all cases: functional, organism-based
Plasmodium falciparum [1] = test: Antimalarial activity against Plasmodium falciparum K1 assessed as parasitic growth inhibition
Plasmodium falciparum [2] = test: Antimalarial activity against Plasmodium falciparum Dd2 assessed as parasitic growth inhibition
Plasmodium falciparum [3] = test: Antimalarial activity against Plasmodium falciparum 3D7 assessed as parasitic growth inhibition
Plasmodium falciparum [4] = test: Antimalarial activity against Chloroquine sensitive Plasmodium falciparum D6 assessed as parasitic growth inhibition
Plasmodium falciparum [5] = test: Antimalarial activity against Chloroquine resistant Plasmodium falciparum W2 assessed as parasitic growth inhibition
Plasmodium falciparum [6] = test: Antimalarial activity against Plasmodium falciparum assessed as parasitic growth inhibition
Plasmodium falciparum [7] = test: Antimalarial activity against Chloroquine resistant Plasmodium falciparum W2 assessed as parasitic growth inhibition measured after 48 hrs by fluorescence based assay; settings: W2, 48 h

Row | SMILES | IC50 (Plasmodium falciparum [4]) [µM] | IC50 (Plasmodium falciparum [5]) [µM] | further results
1 | C[C@H]1[C@@H](OCc2cn(-c3cccc4cc(Cl)ccc34)nn2)O[C@@H]2O[C@]3(C)CC[C@H]4[C@H](C)CC[C@@H]1[C@@]24OO3 |  |  | EC50 (Plasmodium falciparum [1]): 0.0043 µM; EC50 (Plasmodium falciparum [2]): 0.0059 µM; EC50 (Plasmodium falciparum [3]): 0.009 µM
2 | C[C@H]1[C@H](OC(=O)CCC(=O)OCCCCc2cn(-c3ccnc4cc(Cl)ccc34)nn2)O[C@@H]2O[C@]3(C)CC[C@H]4[C@H](C)CC[C@@H]1[C@@]24OO3 |  |  | EC50 (Plasmodium falciparum [1]): 0.0025 µM; EC50 (Plasmodium falciparum [2]): 0.0044 µM; EC50 (Plasmodium falciparum [3]): 0.0062 µM
3 | Cc1cc(NCCCNc2ccnc3cc(Cl)ccc23)nc(Nc2ccc(C(=O)N3CCSCC3)cc2)n1 | 0.032 | 0.033 | 
4 | Cc1cc(Nc2ccc(C(=O)N3CCOCC3)cc2)nc(NCCCCNc2ccnc3cc(Cl)ccc23)n1 | 0.032 | 0.033 | 
5 | CCNC(=S)NNC(=O)c1c(C)nc2ccccc2c1C |  |  | IC50 (Plasmodium falciparum [6]): 0.15 µg/mL (≈ 0.496 µM)
6 | Cc1cc(NCCCCCCNc2ccnc3cc(Cl)ccc23)nc(Nc2ccc(C(=O)N3CCCC3)cc2)n1 | 0.032 | 0.033 | 
7 | Cc1nc2ccccc2c(C)c1C(=O)NNC(=S)Nc1ccc(Cl)cc1 |  |  | IC50 (Plasmodium falciparum [6]): 0.15 µg/mL (≈ 0.39 µM)
8 | COc1cccc(NC(=S)NNC(=O)c2c(C)nc3ccccc3c2C)c1 |  |  | IC50 (Plasmodium falciparum [6]): 0.1 µg/mL (≈ 0.263 µM)
9 | Cc1nc2ccccc2c(C)c1C(=O)NNC(N)=S |  |  | IC50 (Plasmodium falciparum [6]): 0.19 µg/mL (≈ 0.693 µM)
10 | C#CCCCC(C(=O)NCCOC(=O)CCC(=O)O[C@@H]1O[C@@H]2O[C@]3(C)CC[C@H]4[C@H](C)CC[C@@H]([C@H]1C)[C@@]24OO3)c1ccnc2cc(Cl)ccc12 (stereo partly specified) |  |  | EC50 (Plasmodium falciparum [1]): 0.0022 µM; EC50 (Plasmodium falciparum [2]): 0.0048 µM; EC50 (Plasmodium falciparum [3]): 0.006 µM
11 | O=C(c1ccc(Nc2nccc(NCCCNc3ccnc4cc(Cl)ccc34)n2)cc1)N1CCCC1 | 0.032 | 0.033 | 
12 | Cc1cc(NCCCNc2ccnc3cc(Cl)ccc23)nc(Nc2ccc(C(=O)N3CCCCC3)cc2)n1 | 0.032 | 0.033 | 
13 | Cc1nc2ccccc2c(C)c1C(=O)NNC(=S)Nc1ccc(F)cc1F |  |  | IC50 (Plasmodium falciparum [6]): 0.26 µg/mL (≈ 0.673 µM)
14 | Cc1cc(NCCCCNc2ccnc3cc(Cl)ccc23)nc(Nc2ccc(C(=O)N3CCCCC3)cc2)n1 | 0.032 | 0.033 | 
15 | Cc1cc(Nc2ccc(C(=O)N3CCCC3)cc2)nc(NCCCCNc2ccnc3cc(Cl)ccc23)n1 | 0.032 | 0.033 | 
16 | O=C(c1ccc(Nc2nccc(NCCCNc3ccnc4cc(Cl)ccc34)n2)cc1)N1CCCCC1 | 0.032 | 0.033 | 
17 | O=C(c1ccc(Nc2nccc(NCCCCNc3ccnc4cc(Cl)ccc34)n2)cc1)N1CCCC1 | 0.032 | 0.033 | 

Row | SMILES | IC50 (Plasmodium falciparum [4]) [µM] | IC50 (Plasmodium falciparum [5]) [µM] | further results
18 | O=C(c1ccc(Nc2nccc(NCCCNc3ccnc4cc(Cl)ccc34)n2)cc1)N1CCSCC1 | 0.032 | 0.033 | 
19 | Cc1cc(NCCCCCCNc2ccnc3cc(Cl)ccc23)nc(Nc2ccc(C(=O)N3CCCCC3)cc2)n1 | 0.032 | 0.033 | 
20 | Cc1cc(NCCCNc2ccnc3cc(Cl)ccc23)nc(Nc2ccc(C(=O)N3CCOCC3)cc2)n1 | 0.032 | 0.033 | 
21 | O=C1c2cccc(N3CCCCC3)c2C(=O)N1CCCCNc1ccnc2cc(Cl)ccc12 |  |  | IC50 (Plasmodium falciparum [7]): 0.051 µM
22 | Cc1nc(-c2ccccc2)c(-c2ccccc2)c2cc(-c3cn(CCOC(=O)CCC(=O)O[C@@H]4O[C@@H]5O[C@]6(C)CC[C@H]7[C@H](C)CC[C@@H]([C@H]4C)[C@@]57OO6)nn3)ccc12 |  |  | EC50 (Plasmodium falciparum [1]): 0.0033 µM; EC50 (Plasmodium falciparum [2]): 0.0048 µM; EC50 (Plasmodium falciparum [3]): 0.0053 µM
23 | Cc1cc(NCCCCNc2ccnc3cc(Cl)ccc23)nc(Nc2ccc(C(=O)N3CCSCC3)cc2)n1 | 0.032 | 0.033 | 
24 | Cc1cc(Nc2ccc(C(=O)N3CCOCC3)cc2)nc(NCCCNc2ccnc3cc(Cl)ccc23)n1 | 0.032 | 0.033 | 
25 | CN(C)c1nc(N)nc(NCCNc2ccnc3cc(Cl)ccc23)n1 |  |  | IC50 (Plasmodium falciparum [3]): 46.3 µg/mL (≈ 129 µM)
26 | C[C@H]1[C@@H](OCCc2cn(-c3cccc4cc(Cl)ccc34)nn2)O[C@@H]2O[C@]3(C)CC[C@H]4[C@H](C)CC[C@@H]1[C@@]24OO3 |  |  | EC50 (Plasmodium falciparum [1]): 0.002 µM; EC50 (Plasmodium falciparum [2]): 0.0045 µM; EC50 (Plasmodium falciparum [3]): 0.0088 µM
27 | Cc1cc(Nc2ccc(C(=O)N3CCCCC3)cc2)nc(NCCCCNc2ccnc3cc(Cl)ccc23)n1 | 0.032 | 0.033 | 
28 | Cc1nc2ccccc2c(C)c1C(=O)NNC(=S)Nc1ccc([N+](=O)[O-])cc1 |  |  | IC50 (Plasmodium falciparum [6]): 0.25 µg/mL (≈ 0.632 µM)
29 | CCCCc1nc(C)c2ccc(-c3cn(CCOC(=O)CCC(=O)O[C@@H]4O[C@@H]5O[C@]6(C)CC[C@H]7[C@H](C)CC[C@@H]([C@H]4C)[C@@]57OO6)nn3)cc2c1CCCC |  |  | EC50 (Plasmodium falciparum [1]): 0.0042 µM; EC50 (Plasmodium falciparum [2]): 0.01 µM; EC50 (Plasmodium falciparum [3]): 0.0092 µM
30 | Cc1cc(Nc2ccc(C(=O)N3CCCC3)cc2)nc(NCCCNc2ccnc3cc(Cl)ccc23)n1 | 0.032 | 0.033 | 
31 | Cc1cc(Nc2ccc(C(=O)N3CCCCC3)cc2)nc(NCCCNc2ccnc3cc(Cl)ccc23)n1 | 0.032 | 0.033 | 
32 | C[C@H]1[C@@H](OCCCc2cn(-c3cccc4cc(Cl)ccc34)nn2)O[C@@H]2O[C@]3(C)CC[C@H]4[C@H](C)CC[C@@H]1[C@@]24OO3 |  |  | EC50 (Plasmodium falciparum [1]): 0.0038 µM; EC50 (Plasmodium falciparum [2]): 0.0051 µM; EC50 (Plasmodium falciparum [3]): 0.0094 µM
33 | C[C@H]1[C@H](OC(=O)CCC(=O)OCc2cn(-c3ccnc4cc(Cl)ccc34)nn2)O[C@@H]2O[C@]3(C)CC[C@H]4[C@H](C)CC[C@@H]1[C@@]24OO3 (racemic) |  |  | EC50 (Plasmodium falciparum [1]): 0.0018 µM; EC50 (Plasmodium falciparum [2]): 0.0042 µM; EC50 (Plasmodium falciparum [3]): 0.0053 µM
